Assay results from US9119845B2, “Method for the treatment of neurological disorders by enhancing the activity of beta-glucocerebrosidase” (Amicus Therapeautics, Inc., priority 2006, dated 2015).
Structures can show the parent of a compound that is named as a salt. Where two headings read alike, the source gives them in different places. One block for each compound: values may come before it.

Tests used:
GCase [1] = biological target: T1, GCase (Homo sapiens (Human), UniProt P04062); conditions: read-out: IC50 for GCase; printed in synthesis headings
T1 sequence (P04062 40-536): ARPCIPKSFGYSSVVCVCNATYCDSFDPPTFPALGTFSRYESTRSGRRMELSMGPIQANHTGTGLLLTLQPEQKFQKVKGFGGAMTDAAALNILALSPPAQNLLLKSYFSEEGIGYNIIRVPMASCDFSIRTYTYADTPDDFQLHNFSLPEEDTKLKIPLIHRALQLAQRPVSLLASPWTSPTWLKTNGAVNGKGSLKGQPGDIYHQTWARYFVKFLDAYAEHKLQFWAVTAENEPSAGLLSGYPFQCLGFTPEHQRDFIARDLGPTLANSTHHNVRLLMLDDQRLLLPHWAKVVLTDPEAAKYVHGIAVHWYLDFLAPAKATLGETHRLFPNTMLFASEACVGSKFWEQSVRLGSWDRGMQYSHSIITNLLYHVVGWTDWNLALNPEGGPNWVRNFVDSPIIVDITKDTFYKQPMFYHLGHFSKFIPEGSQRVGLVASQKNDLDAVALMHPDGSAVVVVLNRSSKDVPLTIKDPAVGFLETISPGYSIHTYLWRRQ

GCase [2] = biological target: T1, GCase; assay: biochemical
α-galactosidase A = α-galactosidase A (Homo sapiens (Human), UniProt P06280); conditions: healthy volunteers, 50 mg b.i.d. and 150 mg b.i.d.; cited from earlier work
α-galactosidase A, sequence (P06280 32-429): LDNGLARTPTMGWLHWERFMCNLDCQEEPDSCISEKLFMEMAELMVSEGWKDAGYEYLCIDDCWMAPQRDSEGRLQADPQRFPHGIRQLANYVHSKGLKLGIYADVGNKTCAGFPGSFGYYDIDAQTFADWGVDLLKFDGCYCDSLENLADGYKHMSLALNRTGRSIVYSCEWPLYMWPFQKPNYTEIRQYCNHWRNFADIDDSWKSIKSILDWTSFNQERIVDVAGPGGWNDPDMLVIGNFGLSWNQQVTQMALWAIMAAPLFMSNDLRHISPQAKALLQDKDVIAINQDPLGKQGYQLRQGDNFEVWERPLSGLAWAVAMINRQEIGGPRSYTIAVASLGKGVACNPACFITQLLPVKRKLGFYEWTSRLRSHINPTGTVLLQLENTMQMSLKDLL

wild-type GCase = wild-type GCase (Mus musculus (Mouse), UniProt P17439); assay: In vivo GCase activity in normal C57BL6 mice upon treatment with IFG
wild-type GCase, sequence (P17439 20-515): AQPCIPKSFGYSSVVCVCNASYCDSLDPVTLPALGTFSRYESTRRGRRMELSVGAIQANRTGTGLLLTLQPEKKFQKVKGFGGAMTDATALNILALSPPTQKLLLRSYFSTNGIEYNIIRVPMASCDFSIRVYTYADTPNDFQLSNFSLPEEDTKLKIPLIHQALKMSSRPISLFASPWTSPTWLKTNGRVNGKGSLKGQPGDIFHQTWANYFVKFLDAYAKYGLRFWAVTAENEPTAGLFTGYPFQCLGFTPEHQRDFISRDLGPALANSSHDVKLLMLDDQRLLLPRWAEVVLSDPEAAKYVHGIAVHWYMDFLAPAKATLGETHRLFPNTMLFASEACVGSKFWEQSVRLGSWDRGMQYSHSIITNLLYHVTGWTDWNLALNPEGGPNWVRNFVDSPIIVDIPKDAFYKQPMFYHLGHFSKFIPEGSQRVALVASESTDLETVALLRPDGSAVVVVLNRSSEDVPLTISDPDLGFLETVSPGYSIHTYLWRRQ
Procedure: This Example provides information on the effects of isofagomine, a GCase-specific chaperone on mice. IFG were administered to the mice at 200 mg/kg/day; organs and plasma were collected 4 weeks after initiation of the study. Ten male C57BL6 (25 g) mice per group were used. The drug was be given in the drinking water, therefore water consumption was monitored daily.
In the control group (0 mg/kg/day), the mice were dosed daily in the drinking water (no drug) and divided into two groups. Ten animals were euthanized after 4 weeks of treatment, blood was collected from the descending aorta or vena cava, and tissues were harvested and then necropsied.
In the test group, 10 mice were dosed daily in the drinking water with an administration aim of 200 mg/kg/day.
The blood samples were drawn into lithium heparin and spun for plasma. After bleeding, the spleen, lung, brain and liver were removed and placed into vials. The vials were put into dry ice for rapid freezing. The tissues and plasma were then analyzed for tissue levels of GCase.
Small portions of tissue were removed and added to 500 μl lysis buffer (20 mM sodium citrate and 40 mM disodium hydrogen phosphate, pH 4.0, including 0.1% Triton X-100). Tissues were then homogenized using a microhomogenizer for a brief time, followed by centrifugation at 10,000 rpm for 10 minutes at 4° C. Supernatants were transferred to a new tube and used for the enzyme assay.
The enhancement ratio is equal to the activity with the compound over the activity without the compound.

GCase [3] = biological target: T1, GCase; assay: Phase I multiple-dose study: GCase enzymatic activity in healthy volunteers; format: in vivo; conditions: dose-related, during treatment period, FIG. 2
Procedure: (§1) In a first-in-human single ascending dose study (1a), doses of 8, 25, 75, 150 (two cohorts), and 300 mg were administered (6 active, 2 placebo in each cohort). In a multiple ascending dose study (1b), doses of 25, 75, and 225 mg were administered daily for seven days (6 active, 2 placebo in each cohort). In both studies, of the eight subjects in each group; six were randomized to receive IFG tartrate, and two subjects received placebo. Subjects were confined from the evening of day-1 until 24 hrs after completion of dosing. In the phase 1a study subjects returned at 48 hrs (PK sampling) and 7 days (safety follow-up) following dosing. In the phase 1b study subjects returned at 48 h (PD sampling), 7 days (PD sampling and safety follow-up), and 14 days (PD sampling) following the last dose
(§2) GCase activity was determined pre-dose on days 1, 3, 5, 7, 9, 14, and 21. Blood samples were cooled in an ice bath and centrifuged under refrigeration as soon as possible. Plasma samples were divided into two aliquots and stored at […] pending assay. At the end of the study, all samples were transferred to MDS Pharma Services Analytical Laboratories (Lincoln) for analysis.

[4] = Phase I studies in healthy volunteers: pharmacokinetics of oral IFG tartrate; format: in vivo, human; conditions: for half-life: both sexes, human, plasma
Procedure: as §1
Subjects were healthy male and female volunteers between 19 and 55 years of age (inclusive) consisting of members of the community at large.
Blood samples (10 mL each) were collected in blood collection tubes containing EDTA before dosing was determined at regular intervals for the phas 1a during 48 hr following dosing. In the phase 1b study a full IFG tartrate pharmacokinetic profile was determined for 24 hr following the first dose, Cmin values were obtained pre-dose on day 6 and 7, and another full profile was determined for 24 hr following the final, day 7, dose.
as §2

α-synuclein [5] = assay: α-synuclein accumulation in brains of V394L homozygous knock-in mice treated with CBE; format: in vivo, mouse; conditions: CBE daily intraperitoneally for 30 days
Procedure: Mice homozygous for the point mutations D409H or V394L and expressing a low level of saposin C in a prosaposin knock-out background, were analyzed for accumulation of α-synuclein in the brain. These mice have been reported to accumulate glucosylceramide in the brain. Mice homozygous for the point mutations V394L only, were analyzed for α-synuclein accumulation with and without CBE treatment. […] Mice were administered CBE daily by interperitonally injection for 30 consequitive days ([…] calculated from the total weight of the mouse) and brains were analyzed by immunohistochemistry for accumulation of α-synuclein.
Brain tissue was frozen and fixed for immunohistochemistry with 4% paraformaldehyde and serial sections were co-labelled with anti-human α-synuclein (ab1903; Abcam, Cambridge, Mass.) and rabbit anti-ubiquitin (ab7780; Abcam, Cambridge, Mass.).

α-synuclein [6] = assay: α-synuclein immunohistochemistry in brains of transgenic mice over-expressing human α-synuclein; format: in vivo, mouse
Procedure: 48 transgenic animals (male and female) were allocated to 6 groups (n=8) at an age of 5 to 6 weeks concerning baseline and 3 to 4 weeks, respectively concerning all other treatment groups at treatment start. One group of transgenic animals served as baseline group (5 weeks old) and was sacrificed untreated on day 0. One group of transgenic animals was treated with vehicle.
Mice (ages 3-4 weeks) were treated once daily (orally) at either 2 mg/kg; 20 mg/kg; or 200 mg/kg of IFG tartrate for 3 months. One group also was treated once every other day at 20 mg/kg.
Animals of the baseline group were sacrificed at an age of 5 weeks. All other animals were sacrificed at the end of the 3 months treatment period and blood for preparation of serum and macrophages as well as lung, brain and CSF were extracted. Therefore, all mice were sedated by standard inhalation anesthesia (Isofluran, Baxter). Cerebrospinal fluid was obtained by blunt dissection and exposure of the foramen magnum. Upon exposure, a Pasteur pipette was inserted to the approximate depth of 0.3-1 mm into the foramen magnum. CSF was collected by suctioning and capillary action until flow fully ceases. CSF was immediately frozen and kept at −80° C.
The brains were removed and hemisected. The right hemispheres of all mice were immersion fixed in freshly produced 4% paraformaldehyde/PBS (pH 7.4) for one hour at room temperature. Thereafter brains were transferred to a 15% sucrose PBS solution for 24 hours to ensure cryoprotection. On the next day brains were frozen in liquid isopentane and stored at −80° C. until used for histological investigations. To determine the effects of the IFG-tartrate treatment from 8 animals per group 10 μm-thick cryosections were cut for determination of alpha-synuclein pathology. All organs and tissues mentioned were sampled and from specific brain regions i.e. hippocampus, midbrain, frontal cortex and striatum of one hemibrain were extracted and frozen. The other brain half was processed for histological evaluation.
For evaluation of the number of α-synuclein positive cells and Lewy body like inclusions an immunohistochemical staining was carried out using the monoclonal human alpha-synuclein specific antibody (Alexis®; Cat #804-258-L001), dilution 1:5, detected with secondary Cy2 antibody (Jackson Immunoresearch®). The number of alpha-synuclein positive cells in five different layers, one slice per layer, was counted for evaluation in the whole hippocampus and cortex separately.
Briefly, samples were washed for 10 min with PBS at room temperature, followed by fixing for 30 min at room temperature with 4% paraformaldehyde, followed by washing 2 times for 5 min each with PBS at room temperature. For Proteinase K-treated sections, sections were incubated in PBS containing 10 μg/ml proteinase-K for 10 minutes at room temperature. Next, samples were incubated for 15 min at room temperature with blocking solution to block endogenous peroxidase, followed by two more 5 min washes with PBS. Samples were then incubated for 60 min at room temperature with a blocking reagent to block non-specific binding, followed by two more 5 min washes with PBS. Samples were then incubated with M.O.M. diluent for 5 min at room temperature, followed by incubation with the primary antibody (dilution 1:5 in M.O.M. diluent) for 60 min with at room temperature.
After an hour, samples were washed 2 times for 5 min with PBS at room temperature, and incubated for another 60 min at room temperature with blocking reagent. Following two washes, samples were incubated with secondary Ab Cy 2-Goat Anti-Rat (Dilution 1:200 in M.O.M.) for 60 minutes at room temperature, in the absence of light. Samples were then washed for 5 min with PBS, for 5 min with sterile, molecular-biology grade water, and covered with polyvinyl alcohol.
For evaluation of the α-synuclein immunoreactivity, specialized image analysis software (Image Pro Plus, version 4.5.1.29) was used. […]

[7] = Phase I studies in healthy volunteers: safety and tolerability; format: in vivo, human; conditions: both Phase I studies
Procedure: as §1, with “last dose […]” for “last dose”
Safety was determined by evaluating vital signs, laboratory parameters (serum chemistry, hematology, and urinalysis), physical examination and by recording adverse events during the Treatment Period.
Safety data including laboratory evaluations, physical exams, adverse events, ECG monitoring and vital signs assessments were summarized by treatment group and point of time of collection. Descriptive statistics (arithmetic mean, standard deviation, median, minimum and maximum) were calculated for quantitative safety data as well as for the difference to baseline. […]

[8] = normal C57BL6 mice, 200 mg/kg/day in drinking water, FIG. 1

SMILES: CC(C)(C)C#Cc1cn2c(n1)[C@H](OCc1ccccc1)[C@@H](OCc1ccccc1)[C@H](OCc1ccccc1)[C@H]2COCc1ccccc1 [(5R,6R,7S,8S)-6,7,8-Tris(benzyloxy)-5-[(benzyloxy)methyl]-2-(3,3-dimethylbyt-1-ynyl)-5,6,7,8-tetrahydroimidazo[1,2-a]pyridine]
- IC50 (GCase [1]): ~1100 pM

SMILES: OC[C@H]1NC[C@H](O)[C@@H](O)[C@H]1O [DGJ, 1-deoxygalactonojirimycin]
- α-galactosidase A activity in white blood cells (α-galactosidase A): dose-dependent increase

SMILES: OC[C@H]1CNC[C@@H](O)[C@@H]1O [IFG, (3R,4R,5R)-5-(hydroxymethyl)-3,4-piperidinediol]
- GCase levels in brain (wild-type GCase; [8]): increased
- GCase levels in liver (wild-type GCase; [8]): increased
- GCase levels in lung (wild-type GCase; [8]): increased
- GCase levels in spleen (wild-type GCase; [8]): increased
- wild-type GCase activity, dose response (wild-type GCase; separate experiment, mice treated with 0, 1, 10, or 100 mg/kg/day): linear dose-response increase
- increase in GCase enzyme levels above baseline (GCase [3]): approximately 3.5 fold
- half-life ([4]; oral, repeated doses of 25 to 225 mg, read-out: mean half-lives): 5.14 to 19.9 h
- accumulation based on AUC and Cmax comparisons on Day 1 and Day 7 ([4]; repeated doses of 25 to 225 mg): Minimal accumulation

SMILES: O[C@H]1[C@H](O)[C@@H](O)[C@@H]2O[C@@H]2[C@@H]1O [CBE, conduritol-β-epoxide]
- α-synuclein in the brain (α-synuclein [5]): resulted in accumulation of α-synuclein in the brain

Further lines, with some results ahead:

- IC50 (GCase [2]): ~30 pM
SMILES: CC(C)(C)CCc1cn2c(n1)[C@H](O)[C@@H](O)[C@H](O)[C@H]2CO [(5R,6R,7S,8S)-5-Hydroxymethyl-2-(3,3-dimethylbutyl)-5,6,7,8-tetrahydro-imidazo[1,2-a]pyridine-6,7,8-triol]

- IC50 (GCase [2]): ~70 pM
SMILES: CCCCCCCCc1cn2c(n1)[C@H](O)[C@@H](O)[C@H](O)[C@H]2CO [(5R,6R,7S,8S)-5-Hydroxymethyl-2-n-octyl-5,6,7,8-tetrahydroimidazo[1,2-a]pyridine-6,7,8-triol]

- half-life ([4]; single-dose study, oral, read-out: plasma elimination half-life (converted)): 14 h
- systemic exposure via the oral route ([4]; healthy volunteers, oral): good systemic exposure
- time at which mean plasma levels peaked ([4]; single-dose study, oral): 3.4 h
SMILES: OC[C@H]1CNC[C@@H](O)[C@@H]1O [isofagomine tartrate]
- pharmacokinetic behavior and accumulation after 7 days of oral administration ([4]; multiple-dose study, 25, 75, 225 mg daily for seven days): linear with dose, with no unexpected accumulation
- plasma AUC and Cmax versus dose ([4]; single-dose study, 8 to 300 mg oral): linearly correlated with administered dose
- α-synuclein positive cell load versus baseline, both regions averaged (α-synuclein [6]; 2 mg/kg daily for 3 months, p>0.05 versus baseline): prevented mice from the age-accompanied increase of pathology
- number of α-synuclein immunoreactive cells in the hippocampus versus vehicle-treated controls (α-synuclein [6]; 2 mg/kg once daily orally for 3 months, p<0.05, FIG. 6B): reduced the number of immunoreactive cells in the hippocampus significantly
- α-synuclein pathology versus controls at 20 mg dose (α-synuclein [6]; 20 mg/kg daily or every other day for 3 months): not effective versus controls
- accumulation of Proteinase K resistant α-synuclein aggregates (α-synuclein [6]; 20 mg/kg, 3 months, single responding animal, FIG. 5): prevents the accumulation of these α-synuclein aggregates
- qualitative α-synuclein staining in cortex and hippocampus (α-synuclein [6]; 2 and 20 mg/kg b.w. daily, some of the treated animals, FIGS. 3 and 4): strongly decreased background and decreased α-synuclein positive cell numbers
- α-synuclein pathology in the cortex (α-synuclein [6]; oral treatment for 3 months, FIG. 6A): did not reach significance level
- serious adverse events [7]: No serious adverse events occurred
- tolerability ([7]; all doses): generally well tolerated
